# What was measured:
# Settings in all cases: SPR, HBS-N pH 7.4, single cycle kinetics
# [1] = target: E. coli FimH lectin domain (FimHLD 23-10, SEQ ID NO: 1) variant Q133K (Escherichia coli, UniProt P08191, Q154K/V48A)
# Protocol: (§1) To gain a detailed insight into the binding affinity and kinetics of the interaction of FimH lectin domain variants with the n-Heptyl-α-D-mannopyranoside ligand, surface plasmon resonance (SPR) measurements were performed. In brief, the FimH variants were titrated into the Mannoside ligand 5 surface (Rabbani S et al, J Biol. Chem., 2018, 293(5):1835-1849) with the top concentrations of either 3 or 10 μM in HBS-N(0.01 M HEPES, pH 7.4, 0.15 M NaCl, 3 mM EDTA, 0.05% surfactant P20). The proteins were injected from 0.12 to 10 μM or 0.036 to 3.0 μM using a single cycle kinetics injection.
# (§2) These mutants were taken as positive controls. […] Additionally, wild-type (WT) FimH lectin domain was taken along as a negative control.
# (§3) The variants affinity for binding to mannose was assessed using SPR.
# [2] = target: E. coli FimH lectin domain (FimHLD 23-10, SEQ ID NO: 1) variant F71Y (Escherichia coli, UniProt P08191, F92Y/V48A)
# Protocol: as §1, §2, §3
# [3] = target: E. coli FimH lectin domain (FimHLD 23-10, SEQ ID NO: 1) variant F144V (Escherichia coli, UniProt P08191, F165V/V48A)
# Protocol: as §1, §2, §3
# [4] = target: E. coli FimH lectin domain (FimHLD 23-10, SEQ ID NO: 1) variant R60P-Q133K (Escherichia coli, UniProt P08191, Q154K/R81P/V48A)
# Protocol: as §1, §2, §3
# [5] = target: E. coli FimH lectin domain (FimHLD 23-10, SEQ ID NO: 1) variant F144V/F71Y (Escherichia coli, UniProt P08191, F165V/F92Y/V48A)
# Protocol: as §1, §2, §3
# [6] = target: E. coli FimH lectin domain (FimHLD 23-10, SEQ ID NO: 1) variant R60P (Escherichia coli, UniProt P08191, R81P/V48A)
# Protocol: as §1, §2, §3
# Chain of E. coli FimH lectin domain (FimHLD 23-10, SEQ ID NO: 1) variant R60P (P08191 22-180 V48A/R81P): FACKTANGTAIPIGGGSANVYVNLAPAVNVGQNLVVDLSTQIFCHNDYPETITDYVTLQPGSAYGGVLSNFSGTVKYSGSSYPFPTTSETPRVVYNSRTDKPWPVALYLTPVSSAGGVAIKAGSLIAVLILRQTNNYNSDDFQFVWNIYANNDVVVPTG
# Chain of E. coli FimH lectin domain (FimHLD 23-10, SEQ ID NO: 1) variant F144V (P08191 22-180 V48A/F165V): as the sequence (P08191 22-180 V48A/R81P) above, with P60R, F144V counted along it
# Chain of E. coli FimH lectin domain (FimHLD 23-10, SEQ ID NO: 1) variant Q133K (P08191 22-180 V48A/Q154K): as the sequence (P08191 22-180 V48A/R81P) above, with P60R, Q133K counted along it
# Chain of E. coli FimH lectin domain (FimHLD 23-10, SEQ ID NO: 1) variant R60P-Q133K (P08191 22-180 V48A/R81P/Q154K): as the sequence (P08191 22-180 V48A/R81P) above, with Q133K counted along it
# Chain of E. coli FimH lectin domain (FimHLD 23-10, SEQ ID NO: 1) variant F71Y (P08191 22-180 V48A/F92Y): as the sequence (P08191 22-180 V48A/R81P) above, with P60R, F71Y counted along it
# Chain of E. coli FimH lectin domain (FimHLD 23-10, SEQ ID NO: 1) variant F144V/F71Y (P08191 22-180 V48A/F92Y/F165V): as the sequence (P08191 22-180 V48A/R81P) above, with P60R, F71Y, F144V counted along it
compound,measurement,setting,value
CCCCCCCO[C@H]1O[C@H](CO)[C@@H](O)[C@H](O)[C@@H]1O [n-Heptyl-α-D-mannopyranoside],Affinity (KD),[1],did not bind to mannoside at all
same,Affinity (KD),[2],some affinity
same,Affinity (KD),[3],completely abolished
same,Affinity (KD),[4],did not bind to mannoside at all
same,Affinity (KD),[5],completely abolished
same,Affinity (KD),[6],low affinity

# Reference: patent US12297238B2, “FimH mutants, compositions therewith and use thereof” (Janssen Pharmaceuticals, Inc., priority 2021, dated 2025)
